Patent US6372795B1, “Cosmetic compositions containing substituted amide derivatives” (Unilever Home and Personal Care USA, A Division of Conopco, …, priority 2000, dated 2002)
Several values for one entry are separate records, joined by “and”; a condition that tells them apart may be missing. Equal values may be shown once. Read-outs that look alike come from different tables or passages of the source.

System: human sebocytes
Test: Sebum suppression in secondary cultures of human sebocytes (14C-acetate label remaining in sebocytes)
Type: cell-based
Conditions: for activity at 1 µM / activity at 10 µM: Homo sapiens, read-out: % of Control; for activity at 1 µM / activity at 10 µM / % of Control: human sebocytes; for sebum suppressive activity in the presence of a retinoid (combined with retinol): compared with compound alone, summary in words
Experimental: Compounds A through G were tested for their potential to suppress sebum expression, alone or in the presence of a retinoid.
Secondary cultures of human sebocytes obtained from an adult […] were grown in 48-well tissue culture plates (Costar Corp.; Cambridge, Ma.) or 96-well tissue culture plates (Packard Co.; Meriden, Conn.) until confluent. Sebocyte growth medium consisted of Clonetics Keratinocyte Basal Medium (KBM) supplemented with 14 μg/ml bovine pituitary extract, 0.4 μg/ml hydrocortisone, 5 μg/ml insulin, 10 ng/ml epidermal growth factor, 1.2×10^-10 M cholera toxin, 100 units/ml penicillin, and 100 μg/ml streptomycin. All cultures were incubated at 37° C. in the presence of 7.5% CO2. Medium was changed three times per week.
On the day of experimentation, the growth medium was removed and the sebocytes washed three times with sterile Dulbecco's Modified Eagle Medium (DMEM; phenol red free). Fresh DMEM was added to each sample (duplicates, triplicates, or quadruplicates depending on the experiment) with 5 microliter of test agent solubilized in ethanol either alone or in the presence of one or 10 micromolar of retinol. Controls consisted of addition of ethanol alone, retinol alone, or phenol red, which has estrogen-like activity and is included as a positive control.
Each plate was returned to the incubator for 20 hours followed by the addition of 14C-acetate buffer (5 mM final concentration, 56 mCi/mmol specific activity). Sebocytes were returned to the incubator for four hours afterwhich each culture was rinsed three times with phosphate buffered saline to remove unbound label. Radioactive label remaining in the sebocytes was harvested and counted using a Beckman scintillation counter.

[1] = 1 μM test compound + 1 μM Retinol
[2] = 1 μM test compound + 10 μM Retinol
[3] = 1 μM test compound alone, 20 h + 4 h 14C-acetate
[4] = 10 μM test compound + 1 μM Retinol
[5] = 10 μM test compound + 10 μM Retinol

Structure (SMILES): CCOC(=O)c1ccc(NC(=O)Nc2cccc(C(C)O)c2)cc1 (centres unmarked) [Compound D]
- activity at 1 µM [1]: 82.8%
- activity at 1 µM [2]: 78%
- activity at 1 µM [3]: 82.4%
- activity at 10 µM [4]: 66.8%
- activity at 10 µM [5]: 25%
- activity at 10 µM (10 μM test compound alone): 58.5%
- sebum suppressive activity in the presence of a retinoid (combined with retinol): improved sebum suppressive activity

Structure (SMILES): O=C(Nc1ccc(O)cc1)Nc1cccc(C(F)(F)F)c1 [Compound E]
- sebum suppressive activity in the presence of a retinoid (combined with retinol): improved sebum suppressive activity

Structure (SMILES): CCOC(=O)c1ccc(NC(=O)Nc2ccc(O)cc2)cc1 [Compound F]
- % of Control [4]: 53.1% and 73.4%
- % of Control [5]: 63.4% and 40.4%
- % of Control (10 μM test compound alone, 10 µM): 72.0%
- activity at 1 µM [1]: 71%
- activity at 1 µM [2]: 76.2%
- activity at 1 µM [3]: 84%
- activity at 10 µM (10 μM test compound alone): 57.4%
- sebum suppressive activity in the presence of a retinoid (combined with retinol): improved sebum suppressive activity

Structure (SMILES): Cc1cccc(N2CCN(C(=O)CC3C=CC(CC(=O)N4CCN(c5cccc(C)c5)C(C)C4)C3)CC2C)c1 (centres unmarked) [G]
- sebum suppressive activity in the presence of a retinoid (combined with retinol): improved sebum suppressive activity

Structure (SMILES): CC1=C(/C=C/C(C)=C/C=C/C(C)=C/CO)C(C)(C)CCC1 [Retinol, retinol, reference compound]
- % of Control (1 μM Retinol alone): 99.9%
- % of Control (10 μM Retinol alone): 103.7% and 100.9% and 100.1%
- sebum suppressive activity (substance alone, summary in words of Tables 1-12): inactive
